# Test system: not listed separately
# Test: Half life in dog
# Assay type: ADME, organism-based, Canis lupus familiaris
# Settings: in vivo
row,SMILES,half-life
1,NC(=O)Nc1sc(-c2ccccc2)cc1C(=O)N[C@H]1CCCNC1,5.2 h

# Test system: not listed separately
# Test: Lipophilicity, log D of the compound
# Assay type: physicochemical
# Settings: octanol/water
row,SMILES,logD
1,NC(=O)Nc1sc(-c2ccccc2)cc1C(=O)N[C@H]1CCCNC1,1.28

# Test system: not listed separately
# Test: Clearance in mouse
# Assay type: ADME, organism-based
# Settings: in vivo
row,SMILES,clearance
1,NC(=O)Nc1sc(-c2ccccc2)cc1C(=O)N[C@H]1CCCNC1,35.7 mL/min/kg

# Test system: HT-29
# Test: Abrogation of camptothecin induced cell cycle arrest at G2/M phase in human HT29 cells
# Assay type: functional, cell-based
# Settings: Homo sapiens, HT-29
row,SMILES,EC50
1,CCN(CC)CCOc1ccc(-c2cc(C(=O)Nc3cccc(CO)c3)c(NC(N)=O)s2)cc1,> 12500 nM
2,CN(C)CCOc1ccc(-c2cc(C(N)=O)c(NC(N)=O)s2)cc1,> 12500 nM
3,NC(=O)Nc1sc(-c2ccc(O)cc2)cc1C(=O)N[C@H]1CCCNC1,1200 nM
4,NC(=O)Nc1sc(-c2ccccc2F)cc1C(=O)N[C@H]1CCCNC1,80 nM
5,CNCCNC(=O)c1cc(-c2ccccc2)sc1NC(N)=O,580 nM
6,CN(C)CCNC(=O)c1cc(-c2ccccc2)sc1NC(N)=O,4100 nM
7,CCN(CC)CCOc1ccc(-c2cc(C(=O)Nc3cccnc3)c(NC(N)=O)s2)cc1,> 12500 nM
8,CCN(CC)CCOc1ccc(-c2cc(C(=O)NC3CCNC3)c(NC(N)=O)s2)cc1 (configuration not stated),> 12500 nM
9,CCN(CC)CCOc1ccc(-c2cc(C(=O)NC3CCNCC3)c(NC(N)=O)s2)cc1,> 12500 nM
10,N#Cc1ccc(-c2cc(C(=O)N[C@H]3CCCNC3)c(NC(N)=O)s2)cc1,80 nM
11,NC(=O)Nc1sc(-c2ccc(C(F)(F)F)cc2)cc1C(=O)N[C@H]1CCCNC1,170 nM
12,NC(=O)Nc1sc(-c2ccc(Cl)cc2)cc1C(=O)N[C@H]1CCCNC1,40 nM
13,NC(=O)Nc1sc(-c2cccc(C(N)=O)c2)cc1C(=O)N[C@H]1CCCNC1,8100 nM
14,NC(=O)Nc1sc(-c2ccccc2)cc1C(=O)NC[C@H]1CCCNC1,2100 nM
15,NC(=O)Nc1sc(-c2ccccc2)cc1C(=O)NC[C@@H]1CCCNC1,6200 nM
16,NC(=O)Nc1sc(-c2ccccc2)cc1C(=O)N[C@@H]1CCCCNC1,110 nM
17,CN1CCC[C@@H](NC(=O)c2cc(-c3ccccc3)sc2NC(N)=O)C1,2300 nM
18,NC(=O)Nc1sc(-c2ccc(C(=O)N3CCCCC3)cc2)cc1C(=O)N[C@H]1CCCNC1,130 nM

row,SMILES,EC50
1,NC(=O)Nc1sc(-c2ccc(N)cc2)cc1C(=O)N[C@H]1CCCNC1,920 nM
2,CNC(=O)c1ccc(-c2cc(C(=O)N[C@H]3CCCNC3)c(NC(N)=O)s2)cc1,4300 nM
3,CS(=O)(=O)Nc1ccc(-c2cc(C(=O)N[C@H]3CCCNC3)c(NC(N)=O)s2)cc1,2200 nM
4,CC(=O)c1ccc(-c2cc(C(=O)N[C@H]3CCCNC3)c(NC(N)=O)s2)cc1,60 nM
5,CN(C)c1ccc(-c2cc(C(=O)N[C@H]3CCCNC3)c(NC(N)=O)s2)cc1,90 nM
6,NC(=O)Nc1sc(-c2ccc(C(=O)N3CCOCC3)cc2)cc1C(=O)N[C@H]1CCCNC1,610 nM
7,CC(=O)Nc1cccc(-c2cc(C(=O)N[C@H]3CCCNC3)c(NC(N)=O)s2)c1,1800 nM
8,NC(=O)Nc1sc(-c2ccc(CN3CCCCC3)cc2)cc1C(N)=O,270 nM
9,NCCNC(=O)c1cc(-c2ccccc2)sc1NC(N)=O,960 nM
10,NC(=O)Nc1sc(-c2ccccc2)cc1C(=O)NC1CCCCNC1=O (configuration not stated),> 13000 nM
11,Cc1ccc(-c2cc(C(=O)N[C@H]3CCCNC3)c(NC(N)=O)s2)cc1,70 nM
12,NC(=O)Nc1sc(-c2cccc(Cl)c2)cc1C(=O)N[C@H]1CCCNC1,40 nM
13,NC(=O)Nc1sc(-c2ccc(F)cc2)cc1C(=O)N[C@H]1CCCNC1,30 nM
14,CCN(CC)CCOc1ccc(-c2cc(C(=O)NC3CCCNC3)c(NC(N)=O)s2)cc1 (configuration not stated),17 nM
15,CCN(CC)CCOc1cccc(-c2cc(C(=O)N[C@H]3CCCNC3)c(NC(N)=O)s2)c1,1100 nM
16,NC(=O)Nc1sc(-c2ccc(C(N)=O)cc2)cc1C(=O)N[C@H]1CCCNC1,3200 nM
17,NC(=O)Nc1sc(-c2cccs2)cc1C(=O)N[C@H]1CCCNC1,< 8 nM

# Test system: not listed separately
# Test: Inhibition of CYP
# Assay type: ADME
# Settings: not given
row,SMILES,IC50
1,NC(=O)Nc1sc(-c2ccccc2)cc1C(=O)N[C@H]1CCCNC1,> 10000 nM

# Test system: not listed separately
# Test: Oral bioavailability in dog
# Assay type: ADME, organism-based, Canis lupus familiaris
# Settings: in vivo
row,SMILES,bioavailability
1,NC(=O)Nc1sc(-c2ccccc2)cc1C(=O)N[C@H]1CCCNC1,78.8%

# Test system: not listed separately
# Test: Clearance in dog
# Assay type: ADME, organism-based, Canis lupus familiaris
# Settings: in vivo
row,SMILES,clearance
1,NC(=O)Nc1sc(-c2ccccc2)cc1C(=O)N[C@H]1CCCNC1,12.8 mL/min/kg

# Biological target: Voltage-gated inwardly rectifying potassium channel KCNH2 (Homo sapiens, UniProt Q12809)
# Sequence (Q12809 whole entry): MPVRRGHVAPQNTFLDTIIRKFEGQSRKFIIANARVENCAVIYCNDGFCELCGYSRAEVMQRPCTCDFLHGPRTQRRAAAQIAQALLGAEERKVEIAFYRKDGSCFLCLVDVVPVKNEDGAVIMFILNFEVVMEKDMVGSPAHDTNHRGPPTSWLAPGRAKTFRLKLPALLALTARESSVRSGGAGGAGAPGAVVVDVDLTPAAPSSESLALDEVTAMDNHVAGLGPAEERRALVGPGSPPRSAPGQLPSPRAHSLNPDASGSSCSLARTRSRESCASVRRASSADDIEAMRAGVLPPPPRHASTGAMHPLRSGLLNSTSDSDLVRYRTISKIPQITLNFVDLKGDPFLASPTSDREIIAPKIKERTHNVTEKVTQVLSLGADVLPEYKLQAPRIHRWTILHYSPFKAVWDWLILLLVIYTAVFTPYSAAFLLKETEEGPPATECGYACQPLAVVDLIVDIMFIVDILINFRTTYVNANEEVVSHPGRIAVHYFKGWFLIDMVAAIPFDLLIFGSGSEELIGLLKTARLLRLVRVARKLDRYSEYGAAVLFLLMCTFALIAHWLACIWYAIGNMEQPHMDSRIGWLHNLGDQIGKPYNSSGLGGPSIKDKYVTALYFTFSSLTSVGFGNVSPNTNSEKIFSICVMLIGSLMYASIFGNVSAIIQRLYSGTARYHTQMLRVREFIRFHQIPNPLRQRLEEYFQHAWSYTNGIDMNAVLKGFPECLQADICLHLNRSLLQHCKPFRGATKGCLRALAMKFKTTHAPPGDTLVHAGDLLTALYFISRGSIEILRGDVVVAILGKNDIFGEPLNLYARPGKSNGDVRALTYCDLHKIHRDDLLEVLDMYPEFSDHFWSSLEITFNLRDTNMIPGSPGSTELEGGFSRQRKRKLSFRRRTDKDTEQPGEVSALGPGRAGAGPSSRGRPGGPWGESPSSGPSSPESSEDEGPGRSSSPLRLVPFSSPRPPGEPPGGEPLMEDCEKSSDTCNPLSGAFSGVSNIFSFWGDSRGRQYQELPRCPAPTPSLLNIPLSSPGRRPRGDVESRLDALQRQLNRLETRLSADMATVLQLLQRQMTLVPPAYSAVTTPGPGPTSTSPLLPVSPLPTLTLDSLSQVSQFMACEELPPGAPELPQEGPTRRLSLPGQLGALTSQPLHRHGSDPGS
# Test: Inhibition of human ERG
# Settings: not given
row,SMILES,IC50
1,NC(=O)Nc1sc(-c2ccccc2)cc1C(=O)N[C@H]1CCCNC1,> 31600 nM

# Test system: not listed separately
# Test: Solubility of the compound
# Assay type: physicochemical
# Settings: not given
row,SMILES,solubility
1,NC(=O)Nc1sc(-c2ccccc2)cc1C(=O)N[C@H]1CCCNC1,> 2000 µM

# Biological target: T1, Serine/threonine-protein kinase Chk1 (Homo sapiens, UniProt O14757)
# T1 sequence (O14757 whole entry): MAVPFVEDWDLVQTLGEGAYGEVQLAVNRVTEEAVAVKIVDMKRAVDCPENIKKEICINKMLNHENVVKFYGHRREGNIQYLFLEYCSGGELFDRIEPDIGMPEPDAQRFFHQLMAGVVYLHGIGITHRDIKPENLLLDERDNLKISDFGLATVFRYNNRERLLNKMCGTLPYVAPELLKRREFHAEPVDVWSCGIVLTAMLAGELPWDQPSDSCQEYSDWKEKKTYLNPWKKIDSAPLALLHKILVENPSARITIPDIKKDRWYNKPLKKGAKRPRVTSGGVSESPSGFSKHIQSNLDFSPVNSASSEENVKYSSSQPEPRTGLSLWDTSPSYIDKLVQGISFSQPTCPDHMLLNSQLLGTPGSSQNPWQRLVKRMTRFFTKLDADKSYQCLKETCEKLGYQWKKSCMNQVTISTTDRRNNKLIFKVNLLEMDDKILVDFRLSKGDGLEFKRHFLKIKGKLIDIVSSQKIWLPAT
# Test: Inhibition of Chk1
# Settings: not given
row,SMILES,IC50
1,CCN(CC)CCOc1ccc(-c2cc(C(=O)Nc3cccc(CO)c3)c(NC(N)=O)s2)cc1,50 nM
2,NC(=O)Nc1sc(-c2ccc(O)cc2)cc1C(=O)N[C@H]1CCCNC1,7 nM
3,NC(=O)Nc1sc(-c2ccccc2F)cc1C(=O)N[C@H]1CCCNC1,9 nM
4,CNCCNC(=O)c1cc(-c2ccccc2)sc1NC(N)=O,100 nM
5,CN(C)CCNC(=O)c1cc(-c2ccccc2)sc1NC(N)=O,110 nM
6,CCN(CC)CCOc1ccc(-c2cc(C(=O)Nc3cccnc3)c(NC(N)=O)s2)cc1,100 nM
7,CCN(CC)CCOc1ccc(-c2cc(C(=O)NC3CCNC3)c(NC(N)=O)s2)cc1 (configuration not stated),100 nM
8,CCN(CC)CCOc1ccc(-c2cc(C(=O)NC3CCNCC3)c(NC(N)=O)s2)cc1,35 nM
9,N#Cc1ccc(-c2cc(C(=O)N[C@H]3CCCNC3)c(NC(N)=O)s2)cc1,6 nM
10,NC(=O)Nc1sc(-c2ccc(C(F)(F)F)cc2)cc1C(=O)N[C@H]1CCCNC1,19 nM
11,NC(=O)Nc1sc(-c2ccc(Cl)cc2)cc1C(=O)N[C@H]1CCCNC1,10 nM
12,NC(=O)Nc1sc(-c2cccc(C(N)=O)c2)cc1C(=O)N[C@H]1CCCNC1,5 nM
13,NC(=O)Nc1sc(-c2ccccc2)cc1C(=O)NC[C@H]1CCCNC1,100 nM
14,NC(=O)Nc1sc(-c2ccccc2)cc1C(=O)NC[C@@H]1CCCNC1,100 nM
15,NC(=O)Nc1sc(-c2ccccc2)cc1C(=O)N[C@@H]1CCCCNC1,3 nM
16,CN1CCC[C@@H](NC(=O)c2cc(-c3ccccc3)sc2NC(N)=O)C1,160 nM
17,NC(=O)Nc1sc(-c2ccc(C(=O)N3CCCCC3)cc2)cc1C(=O)N[C@H]1CCCNC1,11 nM

row,SMILES,IC50
1,NC(=O)Nc1sc(-c2ccc(N)cc2)cc1C(=O)N[C@H]1CCCNC1,13 nM
2,CNC(=O)c1ccc(-c2cc(C(=O)N[C@H]3CCCNC3)c(NC(N)=O)s2)cc1,9 nM
3,CS(=O)(=O)Nc1ccc(-c2cc(C(=O)N[C@H]3CCCNC3)c(NC(N)=O)s2)cc1,41 nM
4,CC(=O)c1ccc(-c2cc(C(=O)N[C@H]3CCCNC3)c(NC(N)=O)s2)cc1,7 nM
5,CN(C)c1ccc(-c2cc(C(=O)N[C@H]3CCCNC3)c(NC(N)=O)s2)cc1,41 nM
6,NC(=O)Nc1sc(-c2ccc(C(=O)N3CCOCC3)cc2)cc1C(=O)N[C@H]1CCCNC1,10 nM
7,CC(=O)Nc1cccc(-c2cc(C(=O)N[C@H]3CCCNC3)c(NC(N)=O)s2)c1,8 nM
8,NC(=O)Nc1sc(-c2ccc(CN3CCCCC3)cc2)cc1C(N)=O,37 nM
9,NCCNC(=O)c1cc(-c2ccccc2)sc1NC(N)=O,30 nM
10,NC(=O)Nc1sc(-c2ccccc2)cc1C(=O)NC1CCCCNC1=O (configuration not stated),23000 nM
11,Cc1ccc(-c2cc(C(=O)N[C@H]3CCCNC3)c(NC(N)=O)s2)cc1,10 nM
12,NC(=O)Nc1sc(-c2cccc(Cl)c2)cc1C(=O)N[C@H]1CCCNC1,14 nM
13,NC(=O)Nc1sc(-c2ccc(F)cc2)cc1C(=O)N[C@H]1CCCNC1,9 nM
14,CCN(CC)CCOc1cccc(-c2cc(C(=O)N[C@H]3CCCNC3)c(NC(N)=O)s2)c1,< 10 nM
15,NC(=O)Nc1sc(-c2ccc(C(N)=O)cc2)cc1C(=O)N[C@H]1CCCNC1,5 nM
16,NC(=O)Nc1sc(-c2cccs2)cc1C(=O)N[C@H]1CCCNC1,3 nM

# Test system: not listed separately
# Test: Half life in mouse
# Assay type: ADME, organism-based
# Settings: in vivo
row,SMILES,half-life
1,NC(=O)Nc1sc(-c2ccccc2)cc1C(=O)N[C@H]1CCCNC1,1.5 h

# Reference: ChEMBL document CHEMBL1157515, “Discovery of a novel class of 2-ureido thiophene carboxamide checkpoint kinase inhibitors” (Bioorg Med Chem Lett, 2008)
